For data set [1], the system named is HepG2. Briefly: cells. The conditions noted are these: Homo sapiens, HepG2, 48 h.
Description: Antitumor activity against human HepG2 cells assessed as inhibition of cell viability incubated for 48 hrs by MTT assay
Data set [2] concerns HCT-116. Briefly: cells. As to conditions: Homo sapiens, HCT-116, 48 h.
Description: Antitumor activity against human HCT-116 cells assessed as inhibition of cell viability incubated for 48 hrs by MTT assay
Data set [3] has as its system MCF7. Briefly: cells. The conditions noted are these: Homo sapiens, MCF7, 48 h.
Description: Antitumor activity against human MCF7 cells assessed as inhibition of cell viability incubated for 48 hrs by MTT assay
Data set [4] concerns HEp-2. Briefly: cells. As to conditions: Homo sapiens, HEp-2, 48 h.
Description: Antitumor activity against human HEp-2 cells assessed as inhibition of cell viability incubated for 48 hrs by MTT assay
Data set [5] concerns HeLa. Briefly: cells. The conditions noted are these: Homo sapiens, 48 h.
Description: Antitumor activity against human HeLa cells assessed as inhibition of cell viability incubated for 48 hrs by MTT assay
Data set [6] is described as follows: Cytotoxicity against human WI-38 cells incubated for 48 hrs by MTT assay. In kind it is toxicity, cell-based. On the technique in general: Formazan colour is commonly taken as a measure of viable cells.
Data set [7] can be described thus: Cytotoxicity against human WISH cells incubated for 48 hrs by MTT assay. It counts as toxicity, cell-based.
The test system of data set [8] is WI-38. Briefly: Cytotoxicity against human WI-38 cells up to 50 uM incubated for 48 hrs by MTT assay. In kind it is toxicity, cell-based. As to conditions: wi-38, 48 h.
The subject of data set [9] is WISH. Briefly: Cytotoxicity against human WISH cells at up to 50 uM incubated for 48 hrs by MTT assay. In kind it is toxicity, cell-based.

A value given as a limit tells only on which side of the number the result lay.

The results in this text go back to ChEMBL document CHEMBL6177928, “Probing structural requirements for thiazole-based mimetics of sunitinib as potent VEGFR-2 inhibitors” (RSC Med Chem, 2025).

Broadly, the IC50 is the point on the concentration scale where inhibition reaches its midpoint. Read a high IC50 as weaker potency in that assay.

Turning to `N#Cc1sc(Nc2ccccc2)nc1NC(=O)CN1CCN(Cc2ccccc2)CC1`, the IC50 in [1] turned out to be 61.5 µM; in data set [2] it was 56.9 µM; in data set [3] it was 45.3 µM; in data set [4], 82.5 µM; in data set [5], 53.2 µM.

Regarding `N#Cc1sc(Nc2ccccc2)nc1NC(=O)CNNCC(=O)c1ccc(Br)cc1`, the IC50 in data set [1] was found to be 46.1 µM; in data set [2], 34.9 µM; in [3], 35.6 µM; in data set [4] it was 49.1 µM; in data set [5], 43.4 µM.

Take `N#Cc1sc(Nc2ccccc2)nc1N1CSCC1=O`: the IC50 in data set [1] is 91.5 µM; in [2] it was 86.5 µM; in data set [3], 72.8 µM; in data set [4], > 100 µM; in data set [5], 94.3 µM.

For the molecule `N#Cc1sc(Nc2ccccc2)nc1NC(=O)CN1CCOCC1`, the IC50 in data set [1] is 38.5 µM; in data set [2], 31.1 µM; in data set [3], 33.5 µM; in data set [4], 45.8 µM; in data set [5], 36.7 µM.

`N#Cc1sc(Nc2ccccc2)nc1NC(=O)CNNCc1ccccc1`: the values for the IC50 at 48 h in data set [6] and in data set [7] were 75.6 µM and 47.4 µM, respectively. Also, the Activity result in [8] and in data set [9] was “Non-toxic” throughout. The IC50 in [1] stood at 28.3 µM; in data set [2] it was 41.8 µM; in data set [3], 9.1 µM; in data set [4] it was 68.4 µM; in data set [5] it was 21.4 µM.

`N#Cc1sc(Nc2ccccc2)nc1Nc1cnc(N)o1`: the IC50 at 48 h in data set [6] is 27.5 µM; in data set [7], 24 µM. The Activity result in [8] and in [9] was “Non-toxic” throughout. The IC50 in [1] was 20.1 µM; in [2] it was 25.8 µM; in data set [3], 14.8 µM; in data set [4], 39.7 µM; in [5], 16.4 µM.

On to `CN1CCN(CC(=O)Nc2nc(Nc3ccccc3)sc2C#N)CC1`, for which the IC50 in data set [1] was found to be 73.2 µM; in data set [2] it was 70.5 µM; in data set [3] it was 52.7 µM; in [4] it was 94.7 µM; in [5], 67.8 µM.

With `N#Cc1sc(Nc2ccccc2)nc1NC(=O)CN1CCN(c2cccc(Cl)c2)CC1`, the IC50 was 76 µM in data set [1]; 60.4 µM in data set [2]; 59.1 µM in [3]; 87.9 µM in data set [4]; 72.1 µM in data set [5].

Consider `N#Cc1sc(Nc2ccccc2)nc1NC(=O)CNNCC(=O)c1ccccc1`, for which the IC50 in [1] is 52.3 µM; in data set [2], 36.5 µM; in [3], 39 µM; in [4], 64.7 µM; in [5] it was 47 µM.

Turning to `COc1cccc2c1C(=O)c1c(O)c3c(c(O)c1C2=O)C[C@@](O)(C(=O)CO)C[C@@H]3O[C@H]1C[C@H](N)[C@H](O)[C@H](C)O1` [DOXORUBICIN], the IC50 at 48 h in data set [7] was 3.34 µM. In addition, the Activity entry in data set [8] and in data set [9] was “Non-toxic” each time.

Turning to `N#Cc1sc(Nc2ccccc2)nc1Nc1cnc(N)s1`, the IC50 at 48 h in data set [6] is > 100 µM; in data set [7], 82.7 µM. The Activity result in data set [8] and in [9] was “Non-toxic” throughout. Also, the IC50 in data set [1] came to 18.5 µM; in [2], 19.7 µM; in data set [3], 9.67 µM; in data set [4], 35.2 µM; in [5] it was 14 µM.

For the molecule `N#Cc1sc(Nc2ccccc2)nc1NC(=O)CN1CCN(c2ccccc2)CC1`, the IC50 was 42.4 µM in [1]; 51.7 µM in data set [2]; 19.1 µM in data set [3]; 73.5 µM in data set [4]; 38.5 µM in data set [5].

Take `N#Cc1sc(Nc2ccccc2)nc1NC(=O)CNNC(=O)c1ccccc1`: the IC50 in [1] amounted to 74.3 µM; in data set [2], 68.6 µM; in [3], 50.4 µM; in data set [4] it was 92.2 µM; in data set [5], 69.8 µM.

Regarding `N#Cc1sc(Nc2ccccc2)nc1NC(=O)CNNC(=O)c1ccc([N+](=O)[O-])cc1`, the IC50 in data set [1] stood at 57.3 µM; in data set [2] it was 55.2 µM; in data set [3] it was 43.2 µM; in data set [4], 80.4 µM; in data set [5], 49.8 µM.

Take `N#Cc1sc(Nc2ccccc2)nc1N1C(=N)SCC1=O`: the concentration for half-maximal inhibition (IC50) in data set [1] was determined as 35.3 µM; in [2], 44.1 µM; in data set [3] it was 22.5 µM; in [4], 69.5 µM; in data set [5], 31.4 µM.

`N#Cc1sc(Nc2ccccc2)nc1NC(=O)CN1CCCCC1`: the values for the IC50 at 48 h in [6] and in data set [7] were 23.7 µM and 21.2 µM, respectively. Moreover, the Activity entry in [8] and in [9] was “Non-toxic” each time. Moreover, the IC50 in [1] is 30.5 µM; in data set [2] it was 14.2 µM; in [3] it was 16.7 µM; in [4], 28.8 µM; in data set [5] it was 22.8 µM.

Take `N#Cc1sc(Nc2ccccc2)nc1NC(=O)CNNC(=O)c1ccc(Cl)cc1`: the IC50 in data set [1] was 89.9 µM; in data set [2] it was 91.9 µM; in data set [3] it was 64.8 µM; in data set [4], > 100 µM; in data set [5] it was 86.8 µM.

For the molecule `N#Cc1sc(Nc2ccccc2)nc1NC(=O)CNNCC(=O)c1cc2ccccc2oc1=O`, the IC50 in data set [1] came out at 49.4 µM; in data set [2], 37.6 µM; in data set [3], 34.1 µM; in data set [4], 67.2 µM; in data set [5], 45.5 µM.

Take `CC(=O)N1CCN(CC(=O)Nc2nc(Nc3ccccc3)sc2C#N)CC1`: the IC50 in data set [1] is 78.4 µM; in data set [2] it was 65.2 µM; in [3] it was 61.9 µM; in data set [4], 89 µM; in data set [5] it was 74.5 µM.

Consider `N#Cc1sc(Nc2ccccc2)nc1NC(=O)CNNCc1ccc([N+](=O)[O-])cc1`, for which the IC50 in data set [1] was determined as 35.8 µM; in data set [2], 29.3 µM; in [3], 26.2 µM; in data set [4], 43.6 µM; in data set [5], 33.3 µM.

For the molecule `CCN(CC)CCNC(=O)c1c(C)[nH]c(/C=C2\C(=O)Nc3ccc(F)cc32)c1C` [SUNITINIB], the IC50 in [1] was 12.3 µM; in data set [2] it was 8.53 µM; in data set [3], 5.19 µM; in [4], 7.58 µM; in data set [5], 7.48 µM.

Take `Cc1ccc(C(=O)CNNCC(=O)Nc2nc(Nc3ccccc3)sc2C#N)cc1`: the IC50 in data set [1] is 96.2 µM; in [2] it was 81.6 µM; in [3], 84.1 µM; in data set [4] it was > 100 µM; in data set [5], > 100 µM.
